The nature of the data set: activity coefficient (dimensionless); of the first substance listed, at infinite dilution; xn = mol fraction of the nth substance listed. The note with it: 101 kPa, Liquid, Chromatography, x1 = 0.

± gives the expanded uncertainty stated by the source.

Consider `Cc1ccccc1C` [1,2-dimethylbenzene] + CCCCn1cc[n+](C)c1.O=S(=O)([O-])C(F)(F)F, for which the activity coefficient by setting is: (303.15 K) 3.66 ± 0.36; (313.15 K) 3.67 ± 0.36; (323.15 K) 3.68 ± 0.37; (333.15 K) 3.7 ± 0.37; (343.15 K) 3.71 ± 0.37; (353.15 K) 3.76 ± 0.37. Moreover, the activity coefficient (363.15 K) turned out to be 3.78 ± 0.38.

As for `Cc1cccc(C)c1` [1,3-dimethylbenzene] + CCCCn1cc[n+](C)c1.O=S(=O)([O-])C(F)(F)F, the activity coefficient by setting is: (303.15 K) 4.72 ± 0.47; (313.15 K) 4.66 ± 0.46; (323.15 K) 4.58 ± 0.46; (333.15 K) 4.47 ± 0.45; (343.15 K) 4.41 ± 0.44; (353.15 K) 4.33 ± 0.43. Also, the activity coefficient (363.15 K) was determined as 4.07 ± 0.41.

As for `Cc1ccc(C)cc1` [1,4-dimethylbenzene] + CCCCn1cc[n+](C)c1.O=S(=O)([O-])C(F)(F)F, the activity coefficient reads like this: (303.15 K) 4.3 ± 0.43; (313.15 K) 4.32 ± 0.43; (323.15 K) 4.33 ± 0.43; (333.15 K) 4.37 ± 0.43; (343.15 K) 4.41 ± 0.44; (353.15 K) 4.42 ± 0.44. Besides, the activity coefficient (363.15 K) is 4.42 ± 0.44.

`CC(C)CC(C)(C)C` [2,2,4-trimethylpentane] + CCCCn1cc[n+](C)c1.O=S(=O)([O-])C(F)(F)F: the activity coefficient stood at 57 ± 5.7 (303.15 K); 52.9 ± 5.3 (313.15 K); 50.9 ± 5.1 (323.15 K); 47.9 ± 4.8 (333.15 K); 45.6 ± 4.5 (343.15 K); 43.9 ± 4.4 (353.15 K). The activity coefficient (363.15 K) stood at 40.8 ± 4.1.

As to `c1ccccc1` [benzene] + CCCCn1cc[n+](C)c1.O=S(=O)([O-])C(F)(F)F, the activity coefficient (303.15 K) worked out at 1.81 ± 0.18; the activity coefficient (313.15 K) came to 1.82 ± 0.18; the activity coefficient (323.15 K) is 1.83 ± 0.18; the activity coefficient (333.15 K) is 1.84 ± 0.18; the activity coefficient (343.15 K) came out at 1.86 ± 0.18; the activity coefficient (353.15 K) was 1.87 ± 0.19. Besides, where the note is “363.15 K”, the activity coefficient came out at 1.9 ± 0.19.

`C1CCCCC1` [cyclohexane] + CCCCn1cc[n+](C)c1.O=S(=O)([O-])C(F)(F)F: the activity coefficient is 21.8 ± 2.2 (303.15 K); 20.5 ± 2 (313.15 K); 19.2 ± 1.9 (323.15 K); 18.1 ± 1.8 (333.15 K); 16.9 ± 1.7 (343.15 K); 15.5 ± 1.5 (353.15 K). For the setting “363.15 K”, the activity coefficient is 14.6 ± 1.4.

For `C1=CCCCC1` [cyclohexene] + CCCCn1cc[n+](C)c1.O=S(=O)([O-])C(F)(F)F, the activity coefficient turned out to be 10.9 ± 1.1 (303.15 K); 10.4 ± 1 (313.15 K); 10.1 ± 1 (323.15 K); 9.69 ± 0.96 (333.15 K); 9.34 ± 0.93 (343.15 K); 9.15 ± 0.91 (353.15 K). For the setting “363.15 K”, the activity coefficient is 8.82 ± 0.88.

In the case of `CCCCCCCCCC` [decane] + CCCCn1cc[n+](C)c1.O=S(=O)([O-])C(F)(F)F, the activity coefficient runs as follows: (303.15 K) 897; (313.15 K) 709; (323.15 K) 576; (333.15 K) 483; (343.15 K) 409; (353.15 K) 348. For the setting “363.15 K”, the activity coefficient stood at 306.

For `CCc1ccccc1` [ethylbenzene] + CCCCn1cc[n+](C)c1.O=S(=O)([O-])C(F)(F)F, the activity coefficient reads like this: (303.15 K) 4.62 ± 0.46; (313.15 K) 4.57 ± 0.46; (323.15 K) 4.54 ± 0.45; (333.15 K) 4.52 ± 0.45; (343.15 K) 4.5 ± 0.45; (353.15 K) 4.49 ± 0.45. In addition, where the note is “363.15 K”, the activity coefficient came to 4.47 ± 0.44.

Consider `CCCCCCC` [heptane] + CCCCn1cc[n+](C)c1.O=S(=O)([O-])C(F)(F)F, for which the activity coefficient is 56.7 ± 5.7 (303.15 K); 51.6 ± 5.2 (313.15 K); 48.5 ± 4.8 (323.15 K); 46 ± 4.6 (333.15 K); 43.3 ± 4.3 (343.15 K); 41.1 ± 4.1 (353.15 K). For the setting “363.15 K”, the activity coefficient was found to be 38.8 ± 3.9.

In the case of `CCCCCC` [hexane] + CCCCn1cc[n+](C)c1.O=S(=O)([O-])C(F)(F)F, the activity coefficient (303.15 K) amounted to 37.8 ± 3.8; the activity coefficient (313.15 K) worked out at 35.7 ± 3.6; the activity coefficient (323.15 K) worked out at 33.9 ± 3.4; the activity coefficient (333.15 K) amounted to 32.1 ± 3.2; the activity coefficient (343.15 K) came to 30.3 ± 3; the activity coefficient (353.15 K) is 29.1 ± 2.9. In addition, under “363.15 K”, the activity coefficient amounted to 27.6 ± 2.8.

On to `CC1CCCCC1` [methylcyclohexane] + CCCCn1cc[n+](C)c1.O=S(=O)([O-])C(F)(F)F, for which the activity coefficient is 30.2 ± 3 (303.15 K); 28.5 ± 2.8 (313.15 K); 26.8 ± 2.7 (323.15 K); 25.4 ± 2.5 (333.15 K); 24.1 ± 2.4 (343.15 K); 22.9 ± 2.3 (353.15 K). For the same compound, the activity coefficient (363.15 K) came out at 21.6 ± 2.1.

As for `CCCCCCCCC` [nonane] + CCCCn1cc[n+](C)c1.O=S(=O)([O-])C(F)(F)F, the activity coefficient (303.15 K) was determined as 122 ± 12; the activity coefficient (313.15 K) is 111 ± 11; the activity coefficient (323.15 K) worked out at 103 ± 10; the activity coefficient (333.15 K) was found to be 93.3 ± 9.3; the activity coefficient (343.15 K) was 88.2 ± 8.8; the activity coefficient (353.15 K) is 81.3 ± 8.1. The activity coefficient (363.15 K) amounted to 75.9 ± 7.6.

For `CCCCCCCC` [octane] + CCCCn1cc[n+](C)c1.O=S(=O)([O-])C(F)(F)F, the activity coefficient worked out at 87.2 ± 8.7 (303.15 K); 79.9 ± 8 (313.15 K); 74.1 ± 7.4 (323.15 K); 68.3 ± 6.8 (333.15 K); 63.2 ± 6.3 (343.15 K); 60.3 ± 6 (353.15 K). Moreover, the activity coefficient (363.15 K) is 55.1 ± 5.5.

Consider `CCCCC` [pentane] + CCCCn1cc[n+](C)c1.O=S(=O)([O-])C(F)(F)F, for which the activity coefficient worked out at 26.5 ± 2.6 (303.15 K); 24.9 ± 2.5 (313.15 K); 23.9 ± 2.4 (323.15 K); 23.2 ± 2.3 (333.15 K); 22.2 ± 2.2 (343.15 K); 21.2 ± 2.1 (353.15 K). The activity coefficient (363.15 K) was 19.9 ± 2.

With `C=Cc1ccccc1` [styrene] + CCCCn1cc[n+](C)c1.O=S(=O)([O-])C(F)(F)F, the activity coefficient (303.15 K) was determined as 2.46 ± 0.24; the activity coefficient (313.15 K) was found to be 2.48 ± 0.25; the activity coefficient (323.15 K) was 2.49 ± 0.25; the activity coefficient (333.15 K) was 2.51 ± 0.25; the activity coefficient (343.15 K) worked out at 2.53 ± 0.25; the activity coefficient (353.15 K) is 2.54 ± 0.25. For the same compound, the activity coefficient (363.15 K) was 2.57 ± 0.26.

Consider `Cc1ccccc1` [toluene] + CCCCn1cc[n+](C)c1.O=S(=O)([O-])C(F)(F)F, for which the activity coefficient is, setting by setting: (303.15 K) 2.72 ± 0.27; (313.15 K) 2.75 ± 0.27; (323.15 K) 2.78 ± 0.28; (333.15 K) 2.8 ± 0.28; (343.15 K) 2.83 ± 0.28; (353.15 K) 2.85 ± 0.28. Where the note is “363.15 K”, the activity coefficient turned out to be 2.88 ± 0.29.
